The target of this test is High affinity cGMP-specific 3',5'-cyclic phosphodiesterase 9A (Homo sapiens, UniProt O76083). Put plainly: Inhibition of human PDE9A expressed in Escherichia coli DH10 by scintillation proximity assay.
Chain of High affinity cGMP-specific 3',5'-cyclic phosphodiesterase 9A (O76083 whole entry): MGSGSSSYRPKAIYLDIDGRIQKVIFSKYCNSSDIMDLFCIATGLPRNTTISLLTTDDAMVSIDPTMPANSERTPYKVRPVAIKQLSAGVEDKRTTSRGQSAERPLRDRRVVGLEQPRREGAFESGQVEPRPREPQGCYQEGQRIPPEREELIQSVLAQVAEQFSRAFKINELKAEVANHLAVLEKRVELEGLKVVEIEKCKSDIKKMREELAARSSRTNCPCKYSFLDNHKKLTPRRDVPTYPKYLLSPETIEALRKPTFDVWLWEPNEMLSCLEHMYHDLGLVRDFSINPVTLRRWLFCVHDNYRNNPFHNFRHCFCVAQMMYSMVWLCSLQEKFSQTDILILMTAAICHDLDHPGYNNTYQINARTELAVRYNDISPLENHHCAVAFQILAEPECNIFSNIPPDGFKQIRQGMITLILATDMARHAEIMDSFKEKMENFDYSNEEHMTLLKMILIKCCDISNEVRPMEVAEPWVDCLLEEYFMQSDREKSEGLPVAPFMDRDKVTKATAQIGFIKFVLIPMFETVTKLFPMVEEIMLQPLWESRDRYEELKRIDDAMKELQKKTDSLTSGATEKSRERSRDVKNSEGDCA

`O=c1[nH]c(Cc2ccccn2)nc2c1cnn2C1CCOCC1` [OSORESNONTRINE] had an IC50 of 65 nM.

Broadly, the IC50 is the point on the concentration scale where inhibition reaches its midpoint. Read a high IC50 as lower potency.

(Values after ChEMBL document CHEMBL5233201, “Progress in mechanistically novel treatments for schizophrenia” (RSC Med Chem, 2021).)
